# Measurements reported in patent US20050277586A1, “Peptide chemically modified with polyethylene glycol” (priority 2002, published 2005).
# Legend:
# [1] = test system: Vero cell; test: Luciferase-expressing plasmid introduction into Vero cell; type: cell-based, monkey
# From the text: A cell line established from monkey kidney (Vero cell) and a human bladder cancer cell (T24 cell) purchased from American Type Culture Collection (ATCC) and human lung cancer cell (A549 cell) purchased from Dainippon Pharmaceutical were inoculated on a 24 well culture plate (manufactured by NALGEN NUNC) at 1×10^5 cells/well. Vero cell and A549 cell were cultivated in DMEM (manufactured by Life Technologies Oriental) supplemented with 10% fetal bovine serum (hereinafter referred to as FBS, manufactured by NICHIREI), and T24 cell was cultivated in McCoy's 5a (manufactured by Life Technologies Oriental) supplemented with 10% FBS in 5% CO2 atmosphere at 37° C. for 24 hours. […] The luciferase activity expressed in the cell was then measured by the method instructed in luciferase assay system (manufactured by Promega). […]
# 20 μL of this cell lysate and 100 μL of the Luciferase Assay Reagent II attached to the kit was added to a fluorescence-measuring plate (Microlite™ 1 plate, manufactured by Dynatech), and after mixing, fluorescence was measured for 1 second by using a multilabel counter (ARVO™ SY1420 MULTILABEL COUNTER, manufactured by Wallac Beltold. […]
# [2] = test system: plasmid (pUC119); test: Binding ability to plasmid (agarose gel electrophoresis); conditions: charge ratio (±ratio) of 3
# Method: The plasmid prepared by the procedure described in Example 7 (pUC119; final concentration, 20 μg/mL) and the peptides prepared by the procedure described in Examples 1 to 3 were mixed in 20 mM Tris HCl buffer (pH=7.2) containing 150 mM NaCl at a charge ratio (±ratio) of 0 to 3, and the mixture was allowed to stand at 37° C. for 30 minutes. Electrophoresis was then conducted on 1% agarose gel to thereby determine the binding of the plasmid and the peptide.
# (§1) The ±ratio (charge ratio) indicated in FIG. 11 is the ratio of the number (+) of the positively-charged groups in the peptide to the number (−) of negatively-charged groups in the plasmid. As evident in FIG. 11, the amount of plasmid that became bound to the peptide increased with the increase in the charge ratio (±ratio), and the plasmid was fully bound to the peptide at a charge ratio (±ratio) of 3. The peptides of SEQ ID NO: 2 to SEQ ID NO: 24 were also found to bind at a charge ratio (±ratio) of 3.
# [3] = test system: 21mer oligonucleotide; test: Binding ability to oligonucleotide (gel electrophoresis); conditions: charge ratio (±ratio) of 10
# Method: The 21mer oligonucleotide prepared by the procedure described in Example 6 (final concentration, 6.7 μM) and the peptide prepared by the procedure described in Examples 1 to 3 were mixed in 20 mM Tris-HCl buffer (pH=7.2) containing 150 mM NaCl at a charge ratio (±ratio) of 0 to 10, and the mixture was allowed to stand at 37° C. for 30 minutes. Next, 7.5 μL of this solution was mixed with an equal amount of Tris-borate buffer (pH=8.2) containing 80% formamide, and electrophoresis was conducted on 25% polyacrylamide gel containing 7M urea. After the electrophoresis, the gel was stained with 5% aqueous solution of Stains all (manufactured by Funakoshi) containing 50% formamide and washed with water to thereby determine the binding of the oligonucleotide and the peptide.
# as §1, with “10” for “11”, “nucleic acid.” for “plasmid.”, “10,” for “11,”, “oligonucleotide” for “plasmid”, “10.” for “3.”
sequence,measurement,setting,value
TRYLRIHPRSWVHQIALRLRYLRIHPRSWVHQIALRS [SEQ ID NO: 1],Luciferase activity,[1],2.5 × 10^6 cps/mg protein
same,Binding of plasmid to the peptide,[2],fully bound
same,Binding of oligonucleotide to the peptide,[3],fully bound
